From patent US9617276B2, “Compounds and methods for treating AIDS and HIV infections” (priority 2009, dated 2017) come the findings set out here.

One assay has as its target T1, HIV-1 protease (Human immunodeficiency virus type 1 group M subtype B, UniProt P04585).
T1 construct: A simple, continuous fluorometric assay for HIV protease
Briefly: HIV protease enzyme inhibition, fluorometric assay of Toth and Marshall. It counts as biochemical. Particulars: read-out: Ki. On the procedure:
(§1) The inhibitory potencies of acyclic and cyclic inhibitors were measured by the assay protocol of Toth and Marshall (Toth, M. V.; Marshall, G. R. A simple, continuous fluorometric assay for HIV protease. Int. J. Pep. Protien Res. 1990, 36, 544-55).

The test system of a further assay is HIV-1. Description: antiviral assay (IC50). In kind it is cell-based. Conditions: read-out: IC50. Here is the method: as §1
Where [1] appears, read: Human immunodeficiency virus 1, Table 1, acyclic compounds.
Where [2] appears, read: Human immunodeficiency virus 1, Table 2.
Setting [3] is: Human immunodeficiency virus 1, Table 3, E and Z isomers.

Where two headings read alike, the source gives them in different places.

Turning to `C=CCCCCOc1cc(OC)ccc1S(=O)(=O)N(CC(C)CC=C)C[C@@H](O)[C@H](Cc1ccccc1)NC(=O)O[C@H]1CO[C@H]2OCC[C@H]21` (single isomer, unassigned) [Compound 19b], the Ki on HIV-1 protease (Table 4) was below 10 nM. Also, the IC50 with HIV-1 (Table 4) is below 100 nM.
Consider `C=CCCCCOc1cc(OC)ccc1S(=O)(=O)N(CC(C)CC=C)C[C@@H](O)[C@H](Cc1ccccc1)NC(=O)O[C@H]1CO[C@H]2OCC[C@H]21` (single isomer, unassigned) [Compound 19c], for which the Ki at HIV-1 protease (Table 4) was below 10 nM. Besides, in the assay on HIV-1 (Table 4), the IC50 is above 1000 nM.
Take `C=CCCCCOc1cc(OC)ccc1S(=O)(=O)N(CCCCC=C)CC(O)C(Cc1ccccc1)NC(=O)OC1COC2OCCC12` (stereo not drawn) [Compound 13a]: the Ki is below 100 nM on HIV-1 protease (Table 1, acyclic compounds) and 16 nM on HIV-1 protease. The IC50 in the assay on HIV-1 (setting [1]) was above 1000 nM.
With `C=CCCCCN(CC(O)C(Cc1ccccc1)NC(=O)OC1COC2OCCC12)S(=O)(=O)c1ccc(OC)cc1OCCCC=C` (stereo not drawn) [Compound 13b], the Ki was below 100 nM on HIV-1 protease (Table 1, acyclic compounds) and 11 nM at HIV-1 protease. Also, the IC50 with HIV-1 (setting [1]) and in the assay with HIV-1 (Human immunodeficiency virus 1) was above 1000 nM each time.
As to `C=CCCCCN(CC(O)C(Cc1ccccc1)NC(=O)OC1COC2OCCC12)S(=O)(=O)c1ccc(OC)cc1OCCC=C` (stereo not drawn) [Compound 13c], the Ki at HIV-1 protease (Table 1, acyclic compounds) was below 10 nM.
On the same count and under the same terms, as for `C=CCCCCN(CC(O)C(Cc1ccccc1)NC(=O)OC1COC2OCCC12)S(=O)(=O)c1ccc(OC)cc1OCC=C` (stereo not drawn) [Compound 13d], the figure is below 10 nM.
For the compound `C=CCCCCOc1cc(OC)ccc1S(=O)(=O)N(CC=C)CC(O)C(Cc1ccccc1)NC(=O)OC1COC2OCCC12` (stereo not drawn) [Compound 13e], the Ki was below 10 nM at HIV-1 protease (Table 1, acyclic compounds) and 1.7 nM on HIV-1 protease. Further, the 50% inhibitory concentration (IC50) in the assay with HIV-1 (setting [1]) is below 100 nM.
As to `C=CCCCOc1cc(OC)ccc1S(=O)(=O)N(CC=C)CC(O)C(Cc1ccccc1)NC(=O)OC1COC2OCCC12` (stereo not drawn) [Compound 13f], the Ki at HIV-1 protease (Table 1, acyclic compounds) is below 1 nM. Also, the IC50 with HIV-1 (setting [1]) is below 100 nM.
Consider `C=CCCOc1cc(OC)ccc1S(=O)(=O)N(CC=C)CC(O)C(Cc1ccccc1)NC(=O)OC1COC2OCCC12` (stereo not drawn) [Compound 13g], for which, on HIV-1 protease (Table 1, acyclic compounds), the Ki was below 1 nM.
`COc1ccc2c(c1)OCCCCC=CCCCCN(CC(O)C(Cc1ccccc1)NC(=O)OC1COC3OCCC13)S2(=O)=O` (stereo not drawn) [Compound 14a-E]: on HIV-1 protease (Table 3, E and Z isomers), the Ki was below 1 nM. Further, in the assay with HIV-1 (Table 3, E and Z isomers), the IC50 is below 100 nM.
The like results for `COc1ccc2c(c1)OCCCCC=CCCCCN(CC(O)C(Cc1ccccc1)NC(=O)OC1COC3OCCC13)S2(=O)=O` (stereo not drawn) [Compound 14a-Z] were, in that order, below 1 nM and above 1000 nM.
Consider `COc1ccc2c(c1)OCCCCC=CCCCCN(CC(O)C(Cc1ccccc1)NC(=O)OC1COC3OCCC13)S2(=O)=O` (stereo not drawn) [Compound 14a], for which the Ki at HIV-1 protease (Table 2) was below 1 nM. The half-inhibitory concentration (IC50) in the assay on HIV-1 (setting [2]) is below 100 nM.
In the case of `COc1ccc2c(c1)OCCCC=CCCCCN(CC(O)C(Cc1ccccc1)NC(=O)OC1COC3OCCC13)S2(=O)=O` (stereo not drawn) [Compound 14b-Z], at HIV-1 protease (Table 3, E and Z isomers), the inhibition constant Ki was below 1 nM. Further, in the assay with HIV-1 (setting [3]), the IC50 was below 10 nM.
For the compound `COc1ccc2c(c1)OCCC=CCCCCN(CC(O)C(Cc1ccccc1)NC(=O)OC1COC3OCCC13)S2(=O)=O` (stereo not drawn) [Compound 14c-E], the IC50 in the assay with HIV-1 (setting [3]) was below 10 nM.
Consider `COc1ccc2c(c1)OCCCCC=CCN(CC(O)C(Cc1ccccc1)NC(=O)OC1COC3OCCC13)S2(=O)=O` (stereo not drawn) [Compound 14e], for which, at HIV-1 protease (Table 2), the inhibition constant Ki is below 1 nM. Moreover, in the assay on HIV-1 (setting [2]), the IC50 was below 100 nM.
In the case of `COc1ccc2c(c1)OCCCC=CCN(CC(O)C(Cc1ccccc1)NC(=O)OC1COC3OCCC13)S2(=O)=O` (stereo not drawn) [Compound 14f], at HIV-1 protease (Table 2), the Ki is below 1 nM. The half-inhibitory concentration (IC50) in the assay on HIV-1 (setting [2]) is below 100 nM.
As for `COc1ccc2c(c1)OCCC=CCN(CC(O)C(Cc1ccccc1)NC(=O)OC1COC3OCCC13)S2(=O)=O` (stereo not drawn) [Compound 14g], the inhibitory constant (Ki) on HIV-1 protease (Table 2) was below 1 nM.
On the same count and under the same terms, then `COc1ccc2c(c1)OCC=CCN(CC(O)C(Cc1ccccc1)NC(=O)OC1COC3OCCC13)S2(=O)=O` (stereo not drawn) [Compound 14h], with below 10 nM.
`COc1ccc2c(c1)OCCCCCCCCCCN(CC(O)C(Cc1ccccc1)NC(=O)OC1COC3OCCC13)S2(=O)=O` (stereo not drawn) [Compound 15a]: the Ki on HIV-1 protease (Table 2) is below 1 nM. In the assay with HIV-1 (setting [2]), the IC50 was below 100 nM.
Regarding `COc1ccc2c(c1)OCCCCCCCCCN(CC(O)C(Cc1ccccc1)NC(=O)OC1COC3OCCC13)S2(=O)=O` (stereo not drawn) [Compound 15b], the Ki is below 1 nM at HIV-1 protease (Table 2) and below 0.7 nM on HIV-1 protease. Moreover, the half-maximal inhibitory concentration (IC50) with HIV-1 (setting [2]) is below 100 nM; with HIV-1 (Human immunodeficiency virus 1) it was below 49 nM.
In the case of `COc1ccc2c(c1)OCCCCCCCN(CC(O)C(Cc1ccccc1)NC(=O)OC1COC3OCCC13)S2(=O)=O` (stereo not drawn) [Compound 15d], the Ki at HIV-1 protease (Table 2) is below 1 nM. Further, the IC50 in the assay on HIV-1 (setting [2]) was below 100 nM.
As for `COc1ccc2c(c1)OCCCCCN1CCC[C@@H]1CN(C[C@@H](O)[C@H](Cc1ccccc1)NC(=O)O[C@H]1CO[C@H]3OCC[C@H]31)S2(=O)=O` [Compound 00610A], the Ki at HIV-1 protease (Table 5) is above 100 nM.
Same read-out and setting: as for `C=CCN1CCCC1CN(C[C@@H](O)[C@H](Cc1ccccc1)NC(=O)O[C@H]1CO[C@H]2OCC[C@H]21)S(=O)(=O)c1ccc(OC)cc1` (stereo partly drawn) [Compound 0649A], the figure is below 10 nM.
Still for that read-out and setting: as for `C=CCOc1cc(OC)ccc1S(=O)(=O)N(CC1CCCN1CC=C)C[C@@H](O)[C@H](Cc1ccccc1)NC(=O)O[C@H]1CO[C@H]2OCC[C@H]21` (stereo partly drawn) [Compound 0659A], the figure is above 100 nM; as for `COc1ccc2c(c1)OCC/C=C/CN1CCC[C@H]1CN(C[C@@H](O)[C@H](Cc1ccccc1)NC(=O)O[C@H]1CO[C@H]3OCC[C@H]31)S2(=O)=O` [Compound 00810A], above 100 nM.
On the same count and under the same terms, as for `COc1ccc2c(c1)OCC/C=C/CN1C(=O)CC[C@@H]1CN(C[C@@H](O)[C@H](Cc1ccccc1)NC(=O)OC(C)(C)C)S2(=O)=O` [Compound 00910A], the figure is above 100 nM.
Regarding `COc1ccc2c(c1)OCC/C=C\CN1C(=O)CC[C@@H]1CN(C[C@@H](O)[C@H](Cc1ccccc1)NC(=O)OC(C)(C)C)S2(=O)=O` [Compound 01010A], on HIV-1 protease (Table 5), the Ki was above 100 nM.
Same read-out and setting: then `C=CCN1C(=O)CC[C@@H]1CN(C[C@@H](O)[C@H](Cc1ccccc1)NC(=O)O[C@H]1CO[C@H]2OCC[C@H]21)S(=O)(=O)c1ccc(OC)cc1` [Compound 01110A], with below 1 nM.
The same measure, in the same setting: then `COc1ccc2c(c1)OCC/C=C/CN1C(=O)CC[C@@H]1CN(C[C@@H](O)[C@H](Cc1ccccc1)NC(=O)O[C@H]1CO[C@H]3OCC[C@H]31)S2(=O)=O` [Compound 01210A], with below 1 nM; and `COc1ccc2c(c1)OCC/C=C\CN1C(=O)CC[C@@H]1CN(C[C@@H](O)[C@H](Cc1ccccc1)NC(=O)O[C@H]1CO[C@H]3OCC[C@H]31)S2(=O)=O` [Compound 01310A], with below 100 nM.
Same read-out and setting: as for `COc1ccc2c(c1)OCCC=CCN1C(=O)CC[C@H]1CN(C[C@@H](O)[C@H](Cc1ccccc1)NC(=O)O[C@H]1CO[C@H]3OCC[C@H]31)S2(=O)=O` [Compound 01410A], the figure is above 100 nM.
Turning to `COc1ccc2c(c1)OCCCCCN1C(=O)CC[C@H]1CN(C[C@@H](O)[C@H](Cc1ccccc1)NC(=O)O[C@H]1CO[C@H]3OCC[C@H]31)S2(=O)=O` [Compound 02110A], at HIV-1 protease (Table 5), the Ki was below 100 nM.
On the same count and under the same terms, then `COc1ccc2c(c1)OCCCCCN1C(=O)CC[C@@H]1CN(C[C@@H](O)[C@H](Cc1ccccc1)NC(=O)O[C@H]1CO[C@H]3OCC[C@H]31)S2(=O)=O` [Compound 02210A], with below 1 nM.

One may read the Ki as the dissociation constant of the complex between target and ligand, obtained from inhibition or displacement. As a reminder, the IC50 is the concentration needed to halve the response being measured.
